Measured values from PMC6120666 (The EMBO Journal, 2018).

Assays:
Experiment in all cases: Drug affinity chromatography with c-ponatinib and LC-MS/MS (ponatinib interactome)
Assay type in all cases: binding
[1] = molecular target: T1, proteins of U2OS cell lysate (Homo sapiens, UniProt O14974); settings: PPP1R12A, Protein phosphatase 1 regulatory subunit 12A
T1 construct: Proteins enriched by c-ponatinib from U2OS cell lysate; endogenous in cells; host or cells: U2OS cell lysate
Summary of the method: (§1)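 Proteins were identified by nano-UPLC–MS/MS after elution with formic acid and trypsin digestion. They were captured from U2OS lysate (2 mg protein per pulldown, NP-40 buffer) on amine-coupled NHS beads during a 2 h incubation at 4 °C.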

[2] = molecular target: T2, proteins of U2OS cell lysate (Homo sapiens, UniProt O94906); settings: PRPF6, Pre-mRNA-processing factor 6
T2 construct: Proteins enriched by c-ponatinib from U2OS cell lysate; endogenous in cells; host or cells: U2OS cell lysate
Summary of the method: as §1

[3] = molecular target: T3, proteins of U2OS cell lysate (Homo sapiens, UniProt P08559); settings: PDHA1, Pyruvate dehydrogenase E1 component subunit alpha, somatic form, mitochondrial
T3 construct: Proteins enriched by c-ponatinib from U2OS cell lysate; endogenous in cells; host or cells: U2OS cell lysate
Summary of the method: as §1

[4] = molecular target: T4, proteins of U2OS cell lysate (Homo sapiens, UniProt P15880); settings: RPS2, 40S ribosomal protein S2
T4 construct: Proteins enriched by c-ponatinib from U2OS cell lysate; endogenous in cells; host or cells: U2OS cell lysate
Summary of the method: as §1

[5] = molecular target: T5, proteins of U2OS cell lysate (Homo sapiens, UniProt P17844); settings: DDX5, Probable ATP-dependent RNA helicase DDX5
T5 construct: Proteins enriched by c-ponatinib from U2OS cell lysate; endogenous in cells; host or cells: U2OS cell lysate
T5 sequence (P17844 whole entry): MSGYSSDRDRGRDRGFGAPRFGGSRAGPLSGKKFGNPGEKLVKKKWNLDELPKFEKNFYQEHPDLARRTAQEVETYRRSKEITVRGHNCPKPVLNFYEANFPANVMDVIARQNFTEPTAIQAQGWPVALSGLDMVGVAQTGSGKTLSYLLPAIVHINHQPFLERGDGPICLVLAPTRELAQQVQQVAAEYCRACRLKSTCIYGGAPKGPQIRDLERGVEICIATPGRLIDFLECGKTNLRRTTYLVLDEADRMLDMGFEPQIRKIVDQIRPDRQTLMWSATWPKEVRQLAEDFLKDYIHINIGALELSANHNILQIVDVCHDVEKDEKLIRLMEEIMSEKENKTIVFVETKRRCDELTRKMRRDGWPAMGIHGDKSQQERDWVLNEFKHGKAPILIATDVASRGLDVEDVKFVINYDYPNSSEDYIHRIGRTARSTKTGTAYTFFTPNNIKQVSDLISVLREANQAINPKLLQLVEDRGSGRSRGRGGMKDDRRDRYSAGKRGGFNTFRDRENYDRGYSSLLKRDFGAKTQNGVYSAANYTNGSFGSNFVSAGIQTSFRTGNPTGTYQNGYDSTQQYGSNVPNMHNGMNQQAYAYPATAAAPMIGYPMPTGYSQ
Summary of the method: as §1

[6] = molecular target: T6, proteins of U2OS cell lysate (Homo sapiens, UniProt P26640); settings: VARS, Valine--tRNA ligase
T6 construct: Proteins enriched by c-ponatinib from U2OS cell lysate; endogenous in cells; host or cells: U2OS cell lysate
Summary of the method: as §1

[7] = molecular target: T7, proteins of U2OS cell lysate (Homo sapiens, UniProt P26641); settings: EEF1G, Elongation factor 1-gamma
T7 construct: Proteins enriched by c-ponatinib from U2OS cell lysate; endogenous in cells; host or cells: U2OS cell lysate
Summary of the method: as §1

[8] = molecular target: T8, proteins of U2OS cell lysate (Homo sapiens, UniProt P34913); settings: EPHX2, Bifunctional epoxide hydrolase 2
T8 construct: Proteins enriched by c-ponatinib from U2OS cell lysate; endogenous in cells; host or cells: U2OS cell lysate
Summary of the method: as §1

[9] = molecular target: T9, proteins of U2OS cell lysate (Homo sapiens, UniProt P47897); settings: QARS, Glutamine--tRNA ligase
T9 construct: Proteins enriched by c-ponatinib from U2OS cell lysate; endogenous in cells; host or cells: U2OS cell lysate
T9 sequence (P47897 whole entry): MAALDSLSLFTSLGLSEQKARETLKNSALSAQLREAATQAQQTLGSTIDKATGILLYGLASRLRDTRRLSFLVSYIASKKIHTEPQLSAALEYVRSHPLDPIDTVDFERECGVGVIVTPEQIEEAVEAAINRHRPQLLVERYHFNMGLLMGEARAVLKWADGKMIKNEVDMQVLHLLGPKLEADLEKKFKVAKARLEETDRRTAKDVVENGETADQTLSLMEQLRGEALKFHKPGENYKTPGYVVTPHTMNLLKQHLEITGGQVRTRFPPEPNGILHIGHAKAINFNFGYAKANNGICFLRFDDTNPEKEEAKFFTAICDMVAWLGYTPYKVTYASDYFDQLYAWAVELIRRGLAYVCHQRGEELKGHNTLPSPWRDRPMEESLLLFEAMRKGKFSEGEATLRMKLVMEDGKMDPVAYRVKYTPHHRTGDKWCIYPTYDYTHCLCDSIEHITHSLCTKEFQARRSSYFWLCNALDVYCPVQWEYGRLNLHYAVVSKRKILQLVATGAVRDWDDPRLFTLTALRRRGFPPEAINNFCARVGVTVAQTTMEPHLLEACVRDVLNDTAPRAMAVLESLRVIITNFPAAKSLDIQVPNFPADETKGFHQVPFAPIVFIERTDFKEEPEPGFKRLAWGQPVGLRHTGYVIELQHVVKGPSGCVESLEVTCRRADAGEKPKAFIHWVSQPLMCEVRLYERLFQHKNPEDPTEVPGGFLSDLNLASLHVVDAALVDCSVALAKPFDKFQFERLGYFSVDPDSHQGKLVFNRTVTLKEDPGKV
Summary of the method: as §1

[10] = molecular target: T10, proteins of U2OS cell lysate (Homo sapiens, UniProt P49756); settings: RBM25, RNA-binding protein 25
T10 construct: Proteins enriched by c-ponatinib from U2OS cell lysate; endogenous in cells; host or cells: U2OS cell lysate
T10 sequence (P49756 whole entry): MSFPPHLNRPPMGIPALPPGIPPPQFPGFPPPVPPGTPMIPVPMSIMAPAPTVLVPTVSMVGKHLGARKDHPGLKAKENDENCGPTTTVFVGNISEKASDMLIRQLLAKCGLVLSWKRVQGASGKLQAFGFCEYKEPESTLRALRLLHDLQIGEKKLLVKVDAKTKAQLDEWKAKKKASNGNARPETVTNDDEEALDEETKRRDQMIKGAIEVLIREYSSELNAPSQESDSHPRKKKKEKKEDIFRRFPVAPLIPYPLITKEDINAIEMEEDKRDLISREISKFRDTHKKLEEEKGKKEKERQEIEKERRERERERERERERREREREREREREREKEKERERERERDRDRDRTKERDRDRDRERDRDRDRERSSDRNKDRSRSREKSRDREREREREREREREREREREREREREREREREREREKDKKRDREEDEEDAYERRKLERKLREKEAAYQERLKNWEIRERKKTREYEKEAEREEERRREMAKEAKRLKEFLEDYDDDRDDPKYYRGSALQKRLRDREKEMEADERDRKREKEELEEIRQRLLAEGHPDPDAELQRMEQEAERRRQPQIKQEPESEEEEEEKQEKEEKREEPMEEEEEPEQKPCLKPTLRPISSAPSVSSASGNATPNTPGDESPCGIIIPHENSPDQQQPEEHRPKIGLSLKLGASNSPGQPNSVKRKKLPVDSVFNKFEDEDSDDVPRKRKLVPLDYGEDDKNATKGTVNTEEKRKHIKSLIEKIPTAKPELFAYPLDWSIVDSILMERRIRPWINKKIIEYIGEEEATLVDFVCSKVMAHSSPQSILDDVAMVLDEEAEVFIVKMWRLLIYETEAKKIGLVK
Summary of the method: as §1

[11] = molecular target: T11, proteins of U2OS cell lysate (Homo sapiens, UniProt P55084); settings: HADHB, Trifunctional enzyme subunit beta, mitochondrial
T11 construct: Proteins enriched by c-ponatinib from U2OS cell lysate; endogenous in cells; host or cells: U2OS cell lysate
T11 sequence (P55084 34-474): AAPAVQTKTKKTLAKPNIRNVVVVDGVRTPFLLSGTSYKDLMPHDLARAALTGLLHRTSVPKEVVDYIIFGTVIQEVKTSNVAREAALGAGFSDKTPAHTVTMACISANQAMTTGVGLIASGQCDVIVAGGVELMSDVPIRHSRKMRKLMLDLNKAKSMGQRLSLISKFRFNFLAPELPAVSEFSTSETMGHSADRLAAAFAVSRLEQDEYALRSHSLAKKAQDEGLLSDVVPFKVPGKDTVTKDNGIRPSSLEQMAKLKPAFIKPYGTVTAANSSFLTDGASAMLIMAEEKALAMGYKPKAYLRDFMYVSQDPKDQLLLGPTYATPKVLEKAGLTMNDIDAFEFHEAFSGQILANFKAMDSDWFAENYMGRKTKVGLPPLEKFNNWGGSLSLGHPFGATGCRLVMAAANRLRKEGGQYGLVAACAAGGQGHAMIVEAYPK
Summary of the method: as §1

[12] = molecular target: T12, proteins of U2OS cell lysate (Homo sapiens, UniProt P57678); settings: GEMIN4, Gem-associated protein 4
T12 construct: Proteins enriched by c-ponatinib from U2OS cell lysate; endogenous in cells; host or cells: U2OS cell lysate
T12 sequence (P57678 whole entry): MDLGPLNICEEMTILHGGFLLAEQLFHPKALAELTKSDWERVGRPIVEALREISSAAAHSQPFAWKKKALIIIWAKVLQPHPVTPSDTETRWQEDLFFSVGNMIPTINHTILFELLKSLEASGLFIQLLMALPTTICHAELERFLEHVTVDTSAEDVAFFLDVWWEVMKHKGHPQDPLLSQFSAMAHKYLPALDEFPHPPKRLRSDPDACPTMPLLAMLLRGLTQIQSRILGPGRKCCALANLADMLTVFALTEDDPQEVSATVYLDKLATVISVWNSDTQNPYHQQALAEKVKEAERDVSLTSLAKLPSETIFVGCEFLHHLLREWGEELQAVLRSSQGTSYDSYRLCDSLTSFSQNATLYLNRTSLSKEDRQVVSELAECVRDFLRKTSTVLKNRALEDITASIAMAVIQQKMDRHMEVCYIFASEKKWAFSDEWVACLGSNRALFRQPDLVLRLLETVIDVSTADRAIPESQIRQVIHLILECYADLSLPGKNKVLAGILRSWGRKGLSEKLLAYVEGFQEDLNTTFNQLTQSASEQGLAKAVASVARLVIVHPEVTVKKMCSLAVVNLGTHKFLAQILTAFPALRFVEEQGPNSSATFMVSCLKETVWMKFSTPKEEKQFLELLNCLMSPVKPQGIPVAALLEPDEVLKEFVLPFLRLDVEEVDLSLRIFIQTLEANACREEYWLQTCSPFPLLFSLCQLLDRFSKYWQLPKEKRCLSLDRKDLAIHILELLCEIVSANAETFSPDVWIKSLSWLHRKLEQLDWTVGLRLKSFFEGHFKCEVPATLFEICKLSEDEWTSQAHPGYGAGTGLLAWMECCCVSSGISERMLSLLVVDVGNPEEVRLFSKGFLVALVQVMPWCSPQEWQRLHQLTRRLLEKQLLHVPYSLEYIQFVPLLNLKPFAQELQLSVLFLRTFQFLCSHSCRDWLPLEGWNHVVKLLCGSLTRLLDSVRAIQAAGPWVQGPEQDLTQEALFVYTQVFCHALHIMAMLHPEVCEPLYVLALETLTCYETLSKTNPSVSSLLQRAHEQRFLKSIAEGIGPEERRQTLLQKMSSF
Summary of the method: as §1

[13] = molecular target: T13, proteins of U2OS cell lysate (Homo sapiens, UniProt P62854); settings: RPS26;RPS26P11, 40S ribosomal protein S26
T13 construct: Proteins enriched by c-ponatinib from U2OS cell lysate; endogenous in cells; host or cells: U2OS cell lysate
Summary of the method: as §1

[14] = molecular target: T14, proteins of U2OS cell lysate (Homo sapiens, UniProt Q16854); settings: DGUOK, Deoxyguanosine kinase, mitochondrial
T14 construct: Proteins enriched by c-ponatinib from U2OS cell lysate; endogenous in cells; host or cells: U2OS cell lysate
Summary of the method: as §1

[15] = molecular target: T15, proteins of U2OS cell lysate (Homo sapiens, UniProt Q92522); settings: H1FX, Histone H1x
T15 construct: Proteins enriched by c-ponatinib from U2OS cell lysate; endogenous in cells; host or cells: U2OS cell lysate
T15 sequence (Q92522 whole entry): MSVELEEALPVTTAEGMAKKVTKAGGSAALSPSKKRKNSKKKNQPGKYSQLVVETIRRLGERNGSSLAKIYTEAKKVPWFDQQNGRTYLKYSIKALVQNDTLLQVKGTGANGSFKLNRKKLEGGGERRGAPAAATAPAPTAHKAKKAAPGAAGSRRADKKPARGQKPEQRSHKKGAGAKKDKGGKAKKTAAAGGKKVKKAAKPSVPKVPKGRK
Summary of the method: as §1

[16] = molecular target: T16, proteins of U2OS cell lysate (Homo sapiens, UniProt Q9H2K8); settings: TAOK3;TAOK1;TAOK2, Serine/threonine-protein kinase TAO3
T16 construct: Proteins enriched by c-ponatinib from U2OS cell lysate; endogenous in cells; host or cells: U2OS cell lysate
Summary of the method: as §1

[17] = molecular target: T17, proteins of U2OS cell lysate (Homo sapiens, UniProt Q9UMS4); settings: PRPF19, Pre-mRNA-processing factor 19
T17 construct: Proteins enriched by c-ponatinib from U2OS cell lysate; endogenous in cells; host or cells: U2OS cell lysate
Summary of the method: as §1

[18] = molecular target: T18, proteins of U2OS cell lysate (Homo sapiens, UniProt Q9Y2V7); settings: COG6, Conserved oligomeric Golgi complex subunit 6
T18 construct: Proteins enriched by c-ponatinib from U2OS cell lysate; endogenous in cells; host or cells: U2OS cell lysate
Summary of the method: as §1

[19] = molecular target: T19, proteins of U2OS cell lysate (Homo sapiens, UniProt Q13200); settings: captured protein PSMD2, Rank 205
T19 construct: Proteins enriched by c-ponatinib from U2OS cell lysate; endogenous in cells; host or cells: U2OS cell lysate
T19 sequence (Q13200 whole entry): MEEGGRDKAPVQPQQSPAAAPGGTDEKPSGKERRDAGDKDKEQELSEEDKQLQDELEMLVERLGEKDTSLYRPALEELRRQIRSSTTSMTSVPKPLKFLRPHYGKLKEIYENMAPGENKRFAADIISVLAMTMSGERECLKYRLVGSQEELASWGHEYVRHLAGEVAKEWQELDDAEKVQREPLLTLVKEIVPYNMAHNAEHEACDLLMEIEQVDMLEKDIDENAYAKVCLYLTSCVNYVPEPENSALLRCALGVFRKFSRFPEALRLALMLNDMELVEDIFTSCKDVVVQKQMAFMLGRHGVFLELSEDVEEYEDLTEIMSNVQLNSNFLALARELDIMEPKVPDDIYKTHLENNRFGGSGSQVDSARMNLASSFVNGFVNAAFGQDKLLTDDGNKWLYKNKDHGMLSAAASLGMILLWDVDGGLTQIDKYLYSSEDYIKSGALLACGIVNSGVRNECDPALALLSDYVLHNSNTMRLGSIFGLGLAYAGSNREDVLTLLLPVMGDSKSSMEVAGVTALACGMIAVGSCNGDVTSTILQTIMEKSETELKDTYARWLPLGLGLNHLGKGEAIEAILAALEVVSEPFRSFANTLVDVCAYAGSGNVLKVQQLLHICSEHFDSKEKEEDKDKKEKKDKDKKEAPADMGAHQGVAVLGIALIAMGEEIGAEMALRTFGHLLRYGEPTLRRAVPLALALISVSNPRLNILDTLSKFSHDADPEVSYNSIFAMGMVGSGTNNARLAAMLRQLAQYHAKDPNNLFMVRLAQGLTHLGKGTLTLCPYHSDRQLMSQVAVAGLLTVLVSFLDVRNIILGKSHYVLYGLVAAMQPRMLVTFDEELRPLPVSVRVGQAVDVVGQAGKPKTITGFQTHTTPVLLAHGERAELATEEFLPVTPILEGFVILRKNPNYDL
Summary of the method: as §1

Compound	Average LFQ PON_WT [1]	Average LFQ PON_WT [2]	Average LFQ PON_WT [3]	Average LFQ PON_WT [4]	Average LFQ PON_WT [5]	Average LFQ PON_WT [6]	Average LFQ PON_WT [7]	Average LFQ PON_WT [8]	Average LFQ PON_WT [9]	Average LFQ PON_WT [10]	Average LFQ PON_WT [11]	Average LFQ PON_WT [12]	Average LFQ PON_WT [13]	Average LFQ PON_WT [14]	Average LFQ PON_WT [15]	Average LFQ PON_WT [16]	Average LFQ PON_WT [17]	Average LFQ PON_WT [18]	Average LFQ intensity [19]
Cc1ccc(C(=O)Nc2ccc(CN3CCN(C)CC3)c(C(F)(F)F)c2)cc1C#Cc1cnc2cccnn12 [PON]	20.7589	19.4979	21.0192	20.865	21.2715	20.4235	25.0677	24.5257	19.3053	20.8592	23.6834	20.1071	21.6239	23.2666	20.0616	21.1056	21.24	20.9766	
Cc1ccc(C(=O)Nc2ccc(CN3CCN(CCCN)CC3)c(C(F)(F)F)c2)cc1C#Cc1cnc2cccnn12 [c-ponatinib, reference compound]																			21.768
